Converted amounts (≈) assume the structure as drawn.
Key:
[1] = Lipophilicity, logD of compound at pH 7.4; assay type: physicochemical; details: buffer
[2] = Metabolic stability in dog hepatocyte assessed as clearance measured per million cells; assay type: ADME, cell-based, Canis lupus familiaris; details: hepatocytes
Rattus norvegicus [3] = assay: Antiarthritic activity in antigen-induced arthritis Lewis rat model assessed as reduction in knee swelling at po bid administrated for 4 days; assay type: functional, organism-based; details: time 4.0 day
[4] = Plasma protein binding in human assessed as unbound fraction; assay type: ADME, cell-free
[5] = Plasma protein binding in mouse assessed as unbound fraction; assay type: ADME, cell-free
[6] = Oral bioavailability in Beagle dog at 0.3 mg/kg measured upto 24 hrs by LC-MS/MS analysis; assay type: ADME, organism-based, Canis lupus familiaris; details: in vivo
[7] = GSH reactivity in aqueous buffer at pH 7.4 assessed as GSH-adduct formation by measuring half life; assay type: physicochemical
[8] = AUClast in Sprague-Dawley rat at 3 mg/kg,po measured upto 24 hrs by LC-MS/MS analysis; assay type: ADME, organism-based; details: in vivo
[9] = molecular target: T1, Muscarinic acetylcholine receptor M2 (Homo sapiens, UniProt P08172); assay: Inhibition of muscarinic M2 receptor (unknown origin); assay type: toxicity
T1 sequence (P08172 whole entry): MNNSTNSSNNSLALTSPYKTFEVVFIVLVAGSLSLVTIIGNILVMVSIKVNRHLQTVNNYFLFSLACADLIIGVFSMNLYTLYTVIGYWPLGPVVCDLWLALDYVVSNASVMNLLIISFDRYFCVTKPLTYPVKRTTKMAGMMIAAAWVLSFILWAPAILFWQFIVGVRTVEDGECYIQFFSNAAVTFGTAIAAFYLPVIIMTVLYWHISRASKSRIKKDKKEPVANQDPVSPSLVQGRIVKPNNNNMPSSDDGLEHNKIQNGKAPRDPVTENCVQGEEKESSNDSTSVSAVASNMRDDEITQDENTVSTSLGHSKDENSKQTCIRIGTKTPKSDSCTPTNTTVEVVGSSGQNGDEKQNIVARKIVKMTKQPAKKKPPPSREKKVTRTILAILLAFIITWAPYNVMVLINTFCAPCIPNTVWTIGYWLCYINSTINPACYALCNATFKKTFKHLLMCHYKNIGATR

[10] = Volume of distribution at steady state in Beagle dog at 0.1 mg/kg,iv or 0.3 mg/kg,po measured upto 24 hrs by LC-MS/MS analysis; assay type: ADME, organism-based, Canis lupus familiaris; details: in vivo, read-out: Vdss
[11] = Apparent permeability coefficient of the compound across apical to basolateral side in dog MDCK cells by high-throughput analysis; assay type: ADME, cell-based, Canis lupus familiaris
[12] = Testicular toxicity in dog >=75 mg/kg administration for 2 weeks; assay type: organism-based, Canis lupus familiaris; details: in vivo, 336 h
[13] = Inhibition of CXCL1 production in IL-17A stimulated rat IEC-6 cells; assay type: functional
[14] = Metabolic stability in human liver microsomes assessed as intrinsic clearance; assay type: ADME, Microsome; details: read-out: CLH
[15] = Metabolic stability in mouse liver microsomes assessed as intrinsic clearance; assay type: ADME, Microsome; details: read-out: CLH
[16] = Plasma protein binding in rat assessed as unbound fraction; assay type: ADME, cell-free
[17] = Half life in Sprague-Dawley rat at 1 mg/kg,iv or 3 mg/kg,po measured upto 24 hrs by LC-MS/MS analysis; assay type: ADME, organism-based; details: in vivo
Rattus norvegicus [18] = assay: Antiarthritic activity in antigen-induced arthritis Lewis rat model assessed as reduction in knee swelling at 30 mg/kg,po bid administrated for 4 days; assay type: functional; design: scale not given: the % may be the effect or the level left; details: time 4 day
[19] = Inhibition of CXCL1 production in IL-17A stimulated rat IEC-6 cells assessed as fold change in inhibition of CXCL1 release; assay type: functional
Bile salt export pump = Bile salt export pump (Homo sapiens, UniProt O95342); assay: Inhibition of BSEP (unknown origin); assay type: toxicity
Sequence of Bile salt export pump (O95342 whole entry): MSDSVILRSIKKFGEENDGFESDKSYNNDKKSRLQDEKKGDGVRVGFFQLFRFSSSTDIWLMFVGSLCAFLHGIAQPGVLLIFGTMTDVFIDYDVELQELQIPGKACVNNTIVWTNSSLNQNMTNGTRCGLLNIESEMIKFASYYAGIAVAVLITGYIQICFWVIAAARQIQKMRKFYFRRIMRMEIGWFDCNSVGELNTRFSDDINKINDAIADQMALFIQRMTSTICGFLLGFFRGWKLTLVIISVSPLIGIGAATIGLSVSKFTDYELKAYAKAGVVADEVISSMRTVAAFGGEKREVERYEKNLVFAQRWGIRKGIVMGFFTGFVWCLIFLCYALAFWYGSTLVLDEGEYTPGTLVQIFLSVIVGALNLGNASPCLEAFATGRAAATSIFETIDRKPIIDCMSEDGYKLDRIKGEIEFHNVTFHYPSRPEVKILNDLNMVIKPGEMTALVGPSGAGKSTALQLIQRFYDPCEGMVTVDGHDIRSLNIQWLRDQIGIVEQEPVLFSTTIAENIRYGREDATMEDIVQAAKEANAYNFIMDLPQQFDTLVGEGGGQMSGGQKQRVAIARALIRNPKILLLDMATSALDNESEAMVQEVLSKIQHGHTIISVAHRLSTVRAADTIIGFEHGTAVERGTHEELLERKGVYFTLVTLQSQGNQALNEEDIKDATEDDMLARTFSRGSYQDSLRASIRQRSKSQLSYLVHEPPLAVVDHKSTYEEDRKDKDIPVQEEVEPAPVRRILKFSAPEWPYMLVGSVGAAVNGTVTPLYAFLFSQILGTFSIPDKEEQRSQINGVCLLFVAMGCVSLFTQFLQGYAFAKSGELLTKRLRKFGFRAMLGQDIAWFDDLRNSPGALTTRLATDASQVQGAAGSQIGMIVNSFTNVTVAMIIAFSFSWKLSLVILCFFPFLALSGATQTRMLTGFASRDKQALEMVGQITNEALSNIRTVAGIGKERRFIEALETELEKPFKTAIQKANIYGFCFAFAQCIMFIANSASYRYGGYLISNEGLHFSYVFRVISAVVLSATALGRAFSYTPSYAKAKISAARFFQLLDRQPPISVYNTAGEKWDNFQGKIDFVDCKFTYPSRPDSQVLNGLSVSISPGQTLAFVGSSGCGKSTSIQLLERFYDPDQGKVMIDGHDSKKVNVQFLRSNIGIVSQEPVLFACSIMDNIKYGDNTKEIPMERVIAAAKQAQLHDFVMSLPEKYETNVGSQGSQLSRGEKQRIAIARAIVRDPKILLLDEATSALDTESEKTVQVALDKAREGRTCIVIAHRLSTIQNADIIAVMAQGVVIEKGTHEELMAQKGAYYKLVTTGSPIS

[20] = AUClast in Beagle dog at 0.3 mg/kg,po measured upto 24 hrs by LC-MS/MS analysis; assay type: ADME, organism-based, Canis lupus familiaris; details: in vivo
[21] = Half life in Beagle dog at 0.1 mg/kg,iv or 0.3 mg/kg,po measured upto 24 hrs by LC-MS/MS analysis; assay type: ADME, organism-based, Canis lupus familiaris; details: in vivo
[22] = Toxicity in dog assessed as increase in serum liver enzyme at 200 mg/kg administrated for 2 weeks; assay type: organism-based, Canis lupus familiaris; details: in vivo, 336 h
[23] = Toxicity in dog assessed as maximal tolerated dose administrated for 2 weeks; design: species or system Canis lupus familiaris; details: in vivo
[24] = Oral bioavailability in C57BL/6 mouse at 3 mg/kg measured upto 24 hrs by LC-MS/MS analysis; assay type: ADME, organism-based; details: in vivo
[25] = Toxicity in dog assessed as morphological change in liver at 200 mg/kg administrated for 2 weeks; assay type: organism-based, Canis lupus familiaris; details: in vivo, 336 h
[26] = Inhibition of biotinylated human IL-17A/AF647-labeled human IL-17RA protein-protein interaction preincubated for 30 mins with compound followed by addition of AF647-labeled human IL-17RA incubated for 90 min by TR-FRET assay
[27] = Volume of distribution at steady state in Sprague-Dawley rat at 1 mg/kg,iv or 3 mg/kg,po measured upto 24 hrs by LC-MS/MS analysis; assay type: ADME, organism-based; details: in vivo, read-out: Vdss
[28] = Half life in C57BL/6 mouse at 1 mg/kg,iv or 3 mg/kg,po measured upto 24 hrs by LC-MS/MS analysis; assay type: ADME, organism-based; details: in vivo
[29] = AUC in Sprague-Dawley rat at 3 mg/kg,po measured upto 24 hrs by LC-MS/MS analysis; assay type: ADME, organism-based; details: in vivo, po, 3 mg/kg, 24 h
[30] = Volume of distribution at steady state in C57BL/6 mouse at 1 mg/kg,iv or 3 mg/kg,po measured upto 24 hrs by LC-MS/MS analysis; assay type: ADME, organism-based; details: in vivo, read-out: Vdss
[31] = Metabolic stability in human hepatocyte assessed as clearance measured per million cells; assay type: ADME, cell-based; details: hepatocytes
Rattus norvegicus [32] = assay: Antiarthritic activity in antigen-induced arthritis Lewis rat model assessed as reduction in knee swelling at 1 mg/kg,po bid administrated for 4 days; assay type: functional; design: scale not given: the % may be the effect or the level left; details: time 4 day
[33] = Toxicity in rat assessed as maximal tolerated dose administrated for 2 weeks; details: in vivo
[34] = Equilibrium solubility of compound […] at pH 6.8 by high-throughput analysis; assay type: physicochemical
[35] = Oral bioavailability in Sprague-Dawley rat at 3 mg/kg measured upto 24 hrs by LC-MS/MS analysis; assay type: ADME, organism-based; details: in vivo, po, 3 mg/kg, 24 h
[36] = Metabolic stability in rat liver microsomes assessed as intrinsic clearance; assay type: ADME, Microsome; details: read-out: CLH
[37] = Metabolic stability in dog liver microsomes assessed as intrinsic clearance; assay type: ADME, Canis lupus familiaris, Microsome; details: read-out: CLH
[38] = Toxicity in dog at >=200 mg/kg,administrated for 2 weeks; assay type: organism-based, Canis lupus familiaris; details: in vivo, 336 h
[39] = Metabolic stability in rat hepatocyte assessed as clearance measured per million cells; assay type: ADME, cell-based; details: hepatocytes
[40] = Plasma protein binding in dog assessed as unbound fraction; assay type: ADME, cell-free, Canis lupus familiaris
[41] = molecular target: T2, Solute carrier organic anion transporter family member 1B1 (Homo sapiens, UniProt Q9Y6L6); assay: Inhibition of OATP1B1 (unknown origin); assay type: toxicity
T2 sequence (Q9Y6L6 whole entry): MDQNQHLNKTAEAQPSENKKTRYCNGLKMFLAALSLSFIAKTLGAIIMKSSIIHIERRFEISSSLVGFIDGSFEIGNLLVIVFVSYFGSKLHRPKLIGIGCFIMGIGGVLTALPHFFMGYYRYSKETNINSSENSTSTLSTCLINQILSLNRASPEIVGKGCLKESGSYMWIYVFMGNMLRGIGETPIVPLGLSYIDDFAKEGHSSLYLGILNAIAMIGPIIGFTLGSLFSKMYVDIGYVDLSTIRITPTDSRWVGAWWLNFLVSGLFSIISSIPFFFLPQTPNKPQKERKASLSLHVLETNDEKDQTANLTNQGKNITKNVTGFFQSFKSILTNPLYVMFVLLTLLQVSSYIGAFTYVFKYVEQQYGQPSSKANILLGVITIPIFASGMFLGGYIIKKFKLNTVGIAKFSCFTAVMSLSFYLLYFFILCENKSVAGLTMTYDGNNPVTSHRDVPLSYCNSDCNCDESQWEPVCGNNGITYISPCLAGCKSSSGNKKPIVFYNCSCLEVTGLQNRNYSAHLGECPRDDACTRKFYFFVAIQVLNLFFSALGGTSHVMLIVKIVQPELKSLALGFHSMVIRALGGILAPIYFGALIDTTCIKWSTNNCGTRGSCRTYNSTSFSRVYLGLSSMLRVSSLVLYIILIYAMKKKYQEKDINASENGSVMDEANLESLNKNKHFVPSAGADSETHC

[42] = AUClast in C57BL/6 mouse at 3 mg/kg,po measured upto 24 hrs by LC-MS/MS analysis; assay type: ADME, organism-based; details: in vivo
[43] = Inhibition of IL-6 production in IL-17/TNF-alpha stimulated human NHDF cells incubated for 24 hrs by ELISA; assay type: functional, cell-based
[44] = Testicular toxicity in rat at >=100 mg/kg administration for 2 weeks; assay type: organism-based; details: in vivo, 336 h

COC[C@H](c1cnn2cc([C@@H](NC(=O)/C(F)=C\C3CC3)C3CCC(F)(F)CC3)nc2c1)N1C[C@@H](C(F)(F)F)NC1=O
logD [1]: 3.8 | CLH [2]: 5.1 µL | Activity (Rattus norvegicus [3]): Dose-Dependent Effect | fraction unbound [4]: 0.094 | fraction unbound [5]: 0.048 | F [6]: 94% | t1/2 [7]: > 8 h | AUC(0-t) at 24 h [8]: 1.58 µM·h | IC50 [9]: 14 µM | Vd [10]: 3.7 L/kg | Papp A→B [11]: 26 ×10⁻⁶ cm/s | Activity [12]: Toxic | IC90 [13]: 0.045 µM | microsomal CLint [14]: 58 µL/min/mg | microsomal CLint [15]: 25 µL/min/mg | fraction unbound [16]: 0.075 | half-life [17]: 2.6 h | Activity (Rattus norvegicus [18]): 97% | fold change (FC) [19]: 9 | IC50 (Bile salt export pump): 19 µM | AUClast [20]: 4.2 µM·h | half-life [21]: 8.3 h | Activity [22]: Toxic | MTD at 336 h [23]: 75 mg/kg | F [24]: 41% | Activity [25]: Toxic | IC50 [26]: 0.013 µM | Vd [27]: 4.4 L/kg | half-life [28]: 2 h | AUC [29]: 0.024 µM·h | Vd [30]: 3 L/kg | CLH [31]: 58 µL | Activity (Rattus norvegicus [32]): 60% | MTD at 336 h [33]: 1000 mg/kg | solubility [34]: 150 µM (≈ 88.3 µg/mL) | F [35]: 106% | microsomal CLint [36]: 38 µL/min/mg | microsomal CLint [37]: 18 µL/min/mg | Activity [38]: Non-Toxic | CLH [39]: 4.2 µL | fraction unbound [40]: 0.062 | IC50 [41]: 11 µM | AUClast [42]: 0.53 µM·h | IC50 ([43]; 24 h): 0.004 µM | IC90 ([43]; time 24 hrs): 0.037 µM | Activity [44]: Toxic

Reference: ChEMBL document CHEMBL5579899, “Discovery and In Vivo Exploration of 1,3,4-Oxadiazole and α-Fluoroacrylate Containing IL-17 Inhibitors” (J Med Chem, 2024)
